This note sets out measurements from patent publication US20110028401A1, “CRIPTO BLOCKING MOLECULES AND THERAPEUTIC USES THEREOF” (CONSIGLIO NAZIONALE DELLE RICERCHE, priority 2009, published 2011).

One test concerns the target T1, Cripto protein (Mus musculus, UniProt P51865).
T1 construct: made in house
The test is described as follows: ELISA binding of recombinant Cripto to plate-coated peptide. The settings on record: peptide coated at 50 μM; Cripto 50 to 200 ng/ml. The procedure: (§1) To evaluate the binding of Cripto BP to either Cripto or ALK-4 receptor, BP or control peptides (CP; 50 μM) were coated on the surface of a 96-well microtiter plate and incubated over night at 4° C. Wells were washed five times with PBS Tween (PBT) and the aspecific sites blocked for 3 h at RT with 1% Bovine Serum Albumin (BSA) in PBS, 180 μL/well. Wells were washed as above, and the recombinant form of either ALK-4-humanFc chimeric receptor or Cripto protein in PBT were added at the indicated concentrations and incubated for 1 h at 37° C. followed by 1 hr at RT. After washing with PBT, to evaluate the binding of Cripto to 26-23-23, rabbit anti-Cripto IgG (6 μg/ml) were added to the plates and incubated 1 h at 37° C. and 1 hr at RT. After washing in PBT, a goat anti-rabbit […] (Santa Crutz) was added to the plate (0.3 μg/ml) and incubated 1 h at RT. Finally, the plate was developed as reported above. To evaluate the binding of ALK4 to 26-23-23, the extracellular domain of ALK-4 receptor fused to human Fc (R&D Systems) was added at the indicated concentrations and a goat anti-human Fc (Jackson ImmunoResearch; 1:1000) was used.

A further test has as its system Mouse ESC. The test is described as follows: In vitro dopamine and DOPAC levels by HPLC after KCl. It counts as cell-based. As to conditions: 14 days in vitro. The procedure: Dopamine release and turnover was determined in vitro using reverse phase high performance liquid chromatography (HPLC). Mouse ESC were differentiated in a 12 well plate according to the methodology depicted in FIG. 7(a), in the presence of either the Control peptide of Cripto BP. After 14 days in vitro, media was replaced with 200 ul of N2 media supplemented with 56 mM KCl for 30 min. The media was then collected and stabilized with 20 ul of buffer containing 0.4 M perchloric acid containing 7.9 mM sodium metabisulphate and 1.34 mM disodium EDTA. On the day of analysis the samples were centrifuged and the supernatant transferred to HPLC vials and placed in an autosampler for injection onto the HPLC. The HPLC consisted of a LC-20AT pump (Shimadzu), SIL-20A Autosampler (Shimadzu) and C18 reverse phase column (Bio-Rad, Hercules, USA). Detection was via a 3 mm VT-03 flow cell with glassy carbon working electrode (Antec Leyden) and Decade II Electrochemical Detector (Antec Leyden). The mobile phase consisted of 17% v/v methanol in purified deionized water containing 70 mM KH2PO4, 0.5 mM EDTA and 8.0 mM sulfonic acid, pH 3.0 and was run at a flow rate of 0.5 ml/min. DA turnover was expressed as the concentration of DOPAC to DA [DOPAC/DA]. Analysis was performed on triplicate wells on three independent differentiation experiments.

Another test has as its target T2, ALK-4 receptor (Homo sapiens, UniProt P36896).
T2 construct: the extracellular domain of ALK-4 receptor fused to human Fc (R&D Systems); purchased R&D Systems
T2 sequence (P36896 24-126 limits assumed): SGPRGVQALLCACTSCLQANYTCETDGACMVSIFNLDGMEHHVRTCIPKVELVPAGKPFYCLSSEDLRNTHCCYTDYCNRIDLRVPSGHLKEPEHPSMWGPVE
The test is described as follows: ELISA binding of ALK-4 receptor to plate-coated peptide. The settings on record: peptide coated at 50 μM; ALK-4 50 to 200 ng/ml. The method, then:
as §1
On the technique in general: ELISA stands for enzyme-linked immunosorbent assay.

The next test concerns Parkinsonian rats. The test is described as follows: TH-ir neuron counts within striatal grafts. In kind it is in vivo, rat. As to conditions: tumor-free animals. The method, then:
Two days prior to grafting animals began cyclosporine-A immune suppression (10 mg/kg). Fourteen days post-lesioning selected animals (determined by behavioural rotations) were again anesthetized and stereotaxically injected with 1 μl of cell suspension at each of the 4 sites as previously described^29. Stereotaxic coordinates of 1st & 2nd Injection (from bregma): anterior 0.2 mm, lateral 3.0 mm, ventral 4.5 and 5.0 mm; 3rd & 4th Injection, anterior 1.0 mm, lateral 2.5 mm, ventral 4.5 and 5.0 mm; incisor bar 0 mm^57). ESCs were differentiated as outlined in FIG. 7a. In brief, ESC colonies were dissected away from the stromal feeder layer and dissociated using collagenase/dispase with agitation (700 μg/ml, Roche, for 20 min, 80 rpm). Cells were subsequently resuspended at a density of 3,000 cells/μl ready for grafting. Five rats received Sham injections (4 μl N2 media, 1 μl/site), 16 rats received a total of 12,000 ESCs (4×1 μl grafts) pre-treated with the Control peptide (of which 9 of these animals also received infusion of the Control peptide) and a further 16 rats received grafts pretreated with the Cripto blocking peptide (9 animals receiving infusion of the Cripto BP).
The peptide infusion was performed by implantation of a cannula into the striatum (Alzet brain infusion kit) connected to a subcutaneously placed osmotic minipump (Alzet) prefilled with either CP or Cripto BP. […]

Setting [1] is: 56 mM KCl 30 min, compared to Control peptide.

T1 sequence (P51865 18-156 limits assumed): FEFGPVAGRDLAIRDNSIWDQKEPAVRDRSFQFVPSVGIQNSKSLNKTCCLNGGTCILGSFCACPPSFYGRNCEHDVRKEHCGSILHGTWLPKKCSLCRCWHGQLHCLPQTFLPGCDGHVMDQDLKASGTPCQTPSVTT

Consider `C[S+]([O-])CCC(N)C(=O)N[C@@H](CSCc1ccccc1)C(=O)N[C@@H](CSCc1ccccc1)C(=O)N[C@@H](CCCCNC(=O)[C@H](CSCc1ccccc1)NC(=O)[C@H](CSCc1ccccc1)NC(=O)[C@@H](N)CC[S+](C)[O-])C(=O)N[C@@H](CCCCNC(=O)[C@H](CCCCNC(=O)[C@H](CSCc1ccccc1)NC(=O)[C@H](CSCc1ccccc1)NC(=O)[C@@H](N)CC[S+](C)[O-])NC(=O)[C@H](CSCc1ccccc1)NC(=O)[C@H](CSCc1ccccc1)NC(=O)[C@@H](N)CC[S+](C)[O-])C(=O)NCC(=O)O` (stereo partly shown) [Cripto BP], for which, on Cripto protein, the “binding of recombinant Cripto to immobilized peptide” value is recorded as “specifically recognized the immobilized Cripto BP, in a dose-dependent manner”. Besides, in the test on Mouse ESC (setting [1]), the “KCl-evoked release of DOPAC” value is given as “significantly increases” and the “KCl-evoked release of dopamine” value is “significantly increases”. Moreover, in the test on Mouse ESC, the “dopamine turnover (ratio of DOPAC to DA)” value is reported as “able to utilize DA”. Also, the “binding of ALK-4 receptor to immobilized peptide” value at ALK-4 receptor is reported as “not ALK-4 specifically recognized”. The “TH+ cell counts within the graft” value in the test with Parkinsonian rats (pre-treated ESCs + peptide infusion) worked out at 10815±887. Further, in the test with Parkinsonian rats (pre-treated ESCs without infusion), the “TH+ cells within the graft” value is 7491±1488.
